Values of other authors in US11059901B2, “Compositions and methods related to xCT antibodies” (AGIL VAX, INC., priority 2017, dated 2021).

How the values were obtained:
xCT = molecular target: T1, xCT (Homo sapiens, UniProt Q9UPY5)
T1 sequence (Q9UPY5 1-501): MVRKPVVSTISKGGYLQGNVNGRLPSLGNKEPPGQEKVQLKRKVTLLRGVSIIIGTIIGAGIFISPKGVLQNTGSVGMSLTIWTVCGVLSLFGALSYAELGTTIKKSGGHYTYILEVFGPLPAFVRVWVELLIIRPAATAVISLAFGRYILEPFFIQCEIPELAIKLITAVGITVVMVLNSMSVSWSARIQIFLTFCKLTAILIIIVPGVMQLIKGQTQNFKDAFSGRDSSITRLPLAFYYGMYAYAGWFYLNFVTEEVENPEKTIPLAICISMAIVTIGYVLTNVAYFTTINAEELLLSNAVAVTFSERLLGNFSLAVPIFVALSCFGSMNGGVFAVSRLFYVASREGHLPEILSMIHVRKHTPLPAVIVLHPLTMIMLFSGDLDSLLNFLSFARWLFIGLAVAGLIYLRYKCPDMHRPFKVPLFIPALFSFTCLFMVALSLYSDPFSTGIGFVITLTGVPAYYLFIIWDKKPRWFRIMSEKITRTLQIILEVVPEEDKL
T1 sequence (P08195 1-529 partner): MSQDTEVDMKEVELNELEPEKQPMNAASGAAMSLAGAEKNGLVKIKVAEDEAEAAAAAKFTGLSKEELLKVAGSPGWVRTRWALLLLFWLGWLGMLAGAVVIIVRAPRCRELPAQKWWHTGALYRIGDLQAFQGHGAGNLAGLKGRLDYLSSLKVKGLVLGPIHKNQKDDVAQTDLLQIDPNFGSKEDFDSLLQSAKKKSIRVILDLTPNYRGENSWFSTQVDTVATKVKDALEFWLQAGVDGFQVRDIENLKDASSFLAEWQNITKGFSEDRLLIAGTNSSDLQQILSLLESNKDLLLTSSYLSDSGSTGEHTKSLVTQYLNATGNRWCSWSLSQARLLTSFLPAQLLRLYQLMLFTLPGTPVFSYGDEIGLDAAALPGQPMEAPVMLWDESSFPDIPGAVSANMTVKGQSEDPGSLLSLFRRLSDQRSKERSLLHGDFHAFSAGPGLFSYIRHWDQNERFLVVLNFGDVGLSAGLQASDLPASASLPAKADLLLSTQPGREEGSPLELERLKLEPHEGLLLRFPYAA

[1] = under physiological conditions

Question: Which metastatic foci (xCT; animal models of breast cancer metastasis) does the source give for `O=C(O)c1cc(/N=N/c2ccc(S(=O)(=O)Nc3ccccn3)cc2)ccc1O` [SASP, sulfasalazine] here?
Answer: significant decreases

Question: And the “frequency of CSC” value (xCT; in vivo)?
Answer: reductions

Question: And the solubility [1]?
Answer: insoluble

Question: What about the stability [1] of the same compound?
Answer: labile
